Source: US12071436B2, “Anti-parasitic compounds and uses thereof” (Memorial Sloan-Kettering Cancer Center, priority 2016, dated 2024)
Read-outs that look alike come from different tables or passages of the source.

Assays:
[1] = system: HepG2 human hepatoma cells; assay: HepG2 cytotoxicity, MTS cell proliferation assay; type: cell-based; conditions: 48 h, n=1
Method: (§1) Select compounds described herein were evaluated for structure-activity analyses for anti-plasmodial activity in vitro. For Dd2 EC50 (M), calculations were for n=3. For HepG2 EC50 (M), calculations were for n=1. For the human microsomal stability determination, t was 60 minutes.
Selected compounds were evaluated for cytotoxicity using HepG2 human hepatoma cells. A 384-well clear bottom plate was seeded with 2,500 cells/well and incubated for 24 h. Serial dilutions of the compound (were added to the plate and plates were incubated for an additional 48 h. Viability of cells were assessed by MTS [(3-(4,5-dimethylthiazol-2-yl)-5-(3-carboxymethoxyphenyl)-2-(4-sulfophenyl)-2H-tetrazolium) cell proliferation assay (CellTiter 96® Aqueous non-radioactive cell proliferation assay, Promega) (See Cory et al., Cancer Communications, 3, 1991, p. 207-212).

P. falciparum Dd2 = assay: Anti-plasmodial growth inhibition, SYBR green I-based DNA quantification; type: cell-based; conditions: Plasmodium falciparum, 72 h incubation, n=3
Method: as §1
Different dilutions of the compound in RPMI 1640 (Life Technologies) from a stock of 10 mM in dimethyl sulfoxide (DMSO) were added to the culture at a 1% parasitemia and 2% hematocrit in 96-well black plates (Santa Cruz Biotechnology). Maximum DMSO concentration in the culture never exceeded 0.25%. Chloroquine at 1 μM was used as a positive control to determine the baseline value. Following 72 h incubation at 37° C., the ability of the compounds to inhibit growth of the parasite was determined by a SYBR green I-based DNA quantification assay (See Bennett et al., 2004, Chemother. 48, 1807-1810; see also Johnson et al., 2007, Antimicrob. Agents. Chemother. 51, 1926-1933; Smilkstein et al., 2004, Antimicrob. Agents. Chemother. 48, 1803-1806). EC50 was calculated (n=3) from a dose response curve that was generated from a concentration range of 0-20 μM using GraphPad Prism v5.0.

[2] = Plasma pharmacokinetics and liver distribution study in female BALB/c mice; type: in vivo, mouse; conditions: for AUC(0-inf) / Tmax / half-life / Cmax: female, BALB/c, mouse
Method: A plasma pharmacokinetics and liver distribution study of selected compounds, including Pyrrolopyridine-008 (2015-foleyc-216), Pyrrolopyridine-D20-ent (2015-foleyc-217), and Pyrrolopyridine-M03 (2015-foleyc-218), in female BALB/c mice was conducted following a single intraperitoneal and oral administration. […] The blood samples were collected from a set of […] mice at each time point in labeled micro centrifuge tube containing K2EDTA as anticoagulant. Plasma samples were separated by centrifugation at 4000 rpm for 10 min and stored below −70° C. until bioanalysis. After collection of blood sample, animals were humanely euthanized by carbon dioxide asphyxiation to collect liver from Group 1 and Group 2 at all the time points. The collected tissues were rinsed in PBS and were homogenized with nine times of liver weight in ice cold phosphate buffer saline (pH 7.4) and stored below −70° C. until bio-analysis. Total homogenate volume was ten times the tissue weight. All samples were processed for analysis by protein precipitation using acetonitrile and analyzed with fit-for-purpose LC-MS/MS method (LLOQ: 2.01 ng/mL for plasma and 50.30 ng/g for liver). Pharmacokinetic parameters were calculated using the non-compartmental analysis tool of Phoenix WinNonlin® (Version 6.3).

[3] = ip, Dose: 100 mg/kg, liver, read-out: PK (ip, plasma/liver) AUCinf, liver
[4] = ip, Dose: 100 mg/kg, liver, read-out: PK (ip, plasma/liver) Tmax, liver
[5] = ip, Dose: 100 mg/kg, liver, read-out: PK (ip, plasma/liver) t1/2, liver (converted)
[6] = ip, Dose: 100 mg/kg, plasma, read-out: PK (ip, plasma/liver) AUCinf, plasma
[7] = ip, Dose: 100 mg/kg, plasma, read-out: PK (ip, plasma/liver) Cmax, plasma
[8] = ip, Dose: 100 mg/kg, plasma, read-out: PK (ip, plasma/liver) Tmax, plasma
[9] = ip, Dose: 100 mg/kg, plasma, read-out: PK (ip, plasma/liver) t1/2, plasma (converted)
[10] = po, Dose: 100 mg/kg, liver, read-out: PK (po, plasma/liver) Area under the curve (AUCinf), liver
[11] = po, Dose: 100 mg/kg, liver, read-out: PK (po, plasma/liver) Tmax, liver
[12] = po, Dose: 100 mg/kg, liver, read-out: PK (po, plasma/liver) t1/2, liver (converted)
[13] = po, Dose: 100 mg/kg, plasma, read-out: PK (po, plasma/liver) Area under the curve (AUCinf), plasma
[14] = po, Dose: 100 mg/kg, plasma, read-out: PK (po, plasma/liver) Cmax, plasma
[15] = po, Dose: 100 mg/kg, plasma, read-out: PK (po, plasma/liver) Tmax, plasma
[16] = po, Dose: 100 mg/kg, plasma, read-out: PK (po, plasma/liver) t1/2, plasma (converted)

| Compound | EC50 (P. falciparum Dd2) [µM] | EC50 [1] [µM] | Relative Bioavailability, Frel (AUCinf po / AUCinf ip) ([2]; Dose: 100 mg/kg) [%] | AUC(0-inf) [2, 3] [µM·h] | Tmax [2, 4] [h] | half-life [2, 5] [h] | AUC(0-inf) [2, 6] [µM·h] | Cmax [2, 7] [µM] | Tmax [2, 8] [h] | half-life [2, 9] [h] | AUC(0-inf) [2, 10] [µM·h] | Tmax [2, 11] [h] | half-life [2, 12] [h] | AUC(0-inf) [2, 13] [µM·h] | Cmax [2, 14] [µM] | Tmax [2, 15] [h] | half-life [2, 16] [h] | PK (ip, plasma/liver) Cmax, liver ([2]; ip, Dose: 100 mg/kg, liver) [µM] | PK (po, plasma/liver) Cmax, liver ([2]; po, Dose: 100 mg/kg, liver) [µM] | further results |
| --- | --- | --- | --- | --- | --- | --- | --- | --- | --- | --- | --- | --- | --- | --- | --- | --- | --- | --- | --- | --- |
| CC(C)(C)[S@@+]([O-])N1Cc2cc(C(=O)NCc3ccc4c(c3)OCO4)nc(-c3cccc(-c4cc5ccccc5o4)c3)c2[C@H]1CCO [2015-foleyc-219, (R)-N-(benzo[d][1,3]dioxol-5-ylmethyl)-4-(3-(benzofuran-2-yl)phenyl)-2-((R)-tert-butylsulfinyl)-3-(2-hydroxyethyl)-2,3-dihydro-1H-pyrrolo[3,4-c]pyridine-6-carboxamide] | 1.39 ± 0.13 | > 100 | – | – | – | – | – | – | – | – | – | – | – | – | – | – | – | – | – | – |
| CC(C)(C)[S@@+]([O-])N1Cc2cc(C(=O)NCc3ccc4c(c3)OCO4)nc(-c3cccc(-c4cccnc4)c3)c2[C@H]1CCO [drawing 329] | – | – | 49 | 667 | 0.5 | 3.5 | 158 | 33.4 | 0.5 | 2.4 | 238 | 4 | 16.9 | 77.1 | 27.6 | 1 | 1.1 | 87.6 | 39.6 | – |
| CC(C)NC(=O)N1Cc2cc(C(=O)NCC(F)(F)F)nc(-c3cccc(-c4cc5ccccc5o4)c3)c2[C@H]1CCO [drawing 328] | – | – | – | – | – | – | – | – | – | – | – | – | – | – | – | – | – | – | – | Relative Bioavailability, Frel (AUCinf po / AUCinf ip) ([2]; Dose: 50 mg/kg): 57%; AUC(0-inf) ([2]; ip, Dose: 50 mg/kg, liver, read-out: PK (ip, plasma/liver) AUCinf, liver): 186 µM·h; Tmax ([2]; ip, Dose: 50 mg/kg, liver, read-out: PK (ip, plasma/liver) Tmax, liver): 0.1 h; half-life ([2]; ip, Dose: 50 mg/kg, liver, read-out: PK (ip, plasma/liver) t1/2, liver (converted)): 2.2 h; AUC(0-inf) ([2]; ip, Dose: 50 mg/kg, plasma, read-out: PK (ip, plasma/liver) AUCinf, plasma): 52.7 µM·h; Cmax ([2]; ip, Dose: 50 mg/kg, plasma, read-out: PK (ip, plasma/liver) Cmax, plasma): 14 µM; Tmax ([2]; ip, Dose: 50 mg/kg, plasma, read-out: PK (ip, plasma/liver) Tmax, plasma): 1 h; half-life ([2]; ip, Dose: 50 mg/kg, plasma, read-out: PK (ip, plasma/liver) t1/2, plasma (converted)): 1.2 h; AUC(0-inf) ([2]; po, Dose: 50 mg/kg, liver, read-out: PK (po, plasma/liver) Area under the curve (AUCinf), liver): 108 µM·h; Tmax ([2]; po, Dose: 50 mg/kg, liver, read-out: PK (po, plasma/liver) Tmax, liver): 0.25 h; half-life ([2]; po, Dose: 50 mg/kg, liver, read-out: PK (po, plasma/liver) t1/2, liver (converted)): 3.1 h; AUC(0-inf) ([2]; po, Dose: 50 mg/kg, plasma, read-out: PK (po, plasma/liver) Area under the curve (AUCinf), plasma): 29.9 µM·h; Cmax ([2]; po, Dose: 50 mg/kg, plasma, read-out: PK (po, plasma/liver) Cmax, plasma): 10.9 µM; Tmax ([2]; po, Dose: 50 mg/kg, plasma, read-out: PK (po, plasma/liver) Tmax, plasma): 0.25 h; half-life ([2]; po, Dose: 50 mg/kg, plasma, read-out: PK (po, plasma/liver) t1/2, plasma (converted)): 8.2 h; PK (ip, plasma/liver) Cmax, liver ([2]; ip, Dose: 50 mg/kg, liver): 58.6 µM; PK (po, plasma/liver) Cmax, liver ([2]; po, Dose: 50 mg/kg, liver): 53.8 µM |
| CC(C)(C)[S@@+]([O-])N1Cc2cc(C(=O)NCc3ccccc3F)nc(-c3cccc(-c4cccnc4)c3)c2[C@H]1CCO [drawing 330] | – | – | 22 | 306 | 0.25 | 4.6 | 168 | 72.6 | 1 | 1.9 | 125 | 0.5 | 6.4 | 36.7 | 56.4 | 0.5 | 2.1 | 111.3 | 49.2 | – |

Now from value to compound, other results behind:

| EC50 (P. falciparum Dd2) [µM] | Compound | EC50 [1] [µM] | Relative Bioavailability, Frel (AUCinf po / AUCinf ip) ([2]; Dose: 100 mg/kg) [%] | AUC(0-inf) [2, 3] [µM·h] | Tmax [2, 4] [h] | half-life [2, 5] [h] | AUC(0-inf) [2, 6] [µM·h] | Cmax [2, 7] [µM] | Tmax [2, 8] [h] | half-life [2, 9] [h] | AUC(0-inf) [2, 10] [µM·h] | Tmax [2, 11] [h] | half-life [2, 12] [h] | AUC(0-inf) [2, 13] [µM·h] | Cmax [2, 14] [µM] | Tmax [2, 15] [h] | half-life [2, 16] [h] | PK (ip, plasma/liver) Cmax, liver ([2]; ip, Dose: 100 mg/kg, liver) [µM] | PK (po, plasma/liver) Cmax, liver ([2]; po, Dose: 100 mg/kg, liver) [µM] | further results |
| --- | --- | --- | --- | --- | --- | --- | --- | --- | --- | --- | --- | --- | --- | --- | --- | --- | --- | --- | --- | --- |
| 1.48 ± 0.14 | CC(C)(C)[S@@+]([O-])N1Cc2cc(C(N)=O)nc(-c3cccc(-c4cccnc4)c3)c2[C@H]1CCO [2015-foleyc-247] | > 100 | – | – | – | – | – | – | – | – | – | – | – | – | – | – | – | – | – | – |
| 10.2 ± 0.94 | CC(C)NC(=O)N1Cc2cc(C(=O)NCc3ccccc3F)nc(-c3cccc(-c4cc5ccccc5o4)c3)c2[C@H]1CCO [2015-foleyc-268, (R)-4-(3-(benzofuran-2-yl)phenyl)-N^6-(2-fluorobenzyl)-3-(2-hydroxyethyl)-N^2-isopropyl-1,3-dihydro-2H-pyrrolo[3,4-c]pyridine-2,6-dicarboxamide] | > 100 | – | – | – | – | – | – | – | – | – | – | – | – | – | – | – | – | – | – |
